According to patent US3943131A, “Trifluoromethylmercaptoacetamidocephalosporins” (SmithKline Corporation, priority 1974, dated 1976):
Converted amounts (≈) assume the structure as drawn. Like-named read-outs stand apart in the source and are kept apart here.

Columns and labels:
Assay type in all cases: cell-based
Entero. aerogenes = assay: MIC in vitro, Entero. aerogenes; conditions: Klebsiella aerogenes
E. coli. HH 33779 = assay: MIC in vitro, E. coli HH 33779; conditions: Escherichia coli
Pseudomonas sp. HH 63 = assay: MIC in vitro, Pseudomonas sp. HH 63; conditions: SP.HH63
Strep. pyog. C 203 = assay: MIC in vitro, Strep. pyog. C 203
S. aureus HH 127 = assay: MIC in vitro, S. aureus HH 127; conditions: Staphylococcus aureus, HH127
Strep. faecalis HH 34358 = assay: MIC in vitro, Strep. faecalis HH 34358; conditions: Enterococcus faecalis, HH34358
K. pneumo. SK 4200 = assay: MIC in vitro, K. pneumo. SK 4200
[1] = E. coli. HH 33779, read-out: MIC

MIC (Entero. aerogenes) [µg/mL] | MIC (E. coli. HH 33779; [1]) [µg/mL] | MIC (Pseudomonas sp. HH 63) [µg/mL] | MIC (Strep. pyog. C 203) [µg/mL] | MIC (S. aureus HH 127) [µg/mL] | MIC (Strep. faecalis HH 34358) [µg/mL] | MIC (K. pneumo. SK 4200) [µg/mL] | SMILES | MIC (E. coli. HH 33779) [µg/mL]
50 (≈ 121 µM) | 6.3 (≈ 15.2 µM) | < 200 | 0.1 (≈ 0.241 µM) | 0.4 (≈ 0.965 µM) | 25 (≈ 60.3 µM) | 0.8 (≈ 1.93 µM) | CC(=O)OCC1=C(C(=O)O)N2C(=O)C(NC(=O)CSC(F)(F)F)C2SC1 (stereo not drawn) [I, 7-trifluoromethylmercaptoacetamidocephalosporanic acid] | –
1.6 (≈ 3.4 µM) | 1.6 (≈ 3.4 µM) | < 200 | 0.1 (≈ 0.213 µM) | 0.4 (≈ 0.85 µM) | 25 (≈ 53.1 µM) | 0.8 (≈ 1.7 µM) | Cn1nnnc1SCC1=C(C(=O)O)N2C(=O)C(NC(=O)CSC(F)(F)F)[C@H]2SC1 (stereo partly drawn) [II, 7-Trifluoromethylmercaptoacetamido-3-(1-methyl-tetrazol-5-ylthiomethyl)-3-cephem-4-carboxylic acid] | –

SMILES | MIC (Entero. aerogenes) [µg/mL] | MIC (E. coli. HH 33779; [1]) [µg/mL] | MIC (Pseudomonas sp. HH 63) [µg/mL] | MIC (Strep. pyog. C 203) [µg/mL] | MIC (S. aureus HH 127) [µg/mL] | MIC (Strep. faecalis HH 34358) [µg/mL] | MIC (K. pneumo. SK 4200) [µg/mL] | MIC (E. coli. HH 33779) [µg/mL]
Cc1nnc(SCC2=C(C(=O)O)N3C(=O)C(NC(=O)CSC(F)(F)F)[C@H]3SC2)s1 (stereo partly drawn) [III, 7-trifluoromethylmercaptoacetamido-3-(5-methyl-1,3,4-thiadiazol-2-ylthiomethyl)-3-cephem-4-carboxylic acid] | 6.3 (≈ 12.9 µM) | – | < 200 | 0.1 (≈ 0.206 µM) | 0.4 (≈ 0.822 µM) | 12.5 (≈ 25.7 µM) | 1.6 (≈ 3.29 µM) | 3.1 (≈ 6.37 µM)
